The structures appear in SMILES notation. A value given as a limit tells only on which side of the number the result lay.

Broadly, the IC50 is the concentration at which inhibition is half-maximal.

One assay has as its target T1, Genome polyprotein (Hepatitis C virus genotype 1b (isolate Japanese), UniProt P26662). As to the kind of experiment: HCV Polymerase Enzyme Assay. From the text: Test compounds in the form of nucleoside triphosphates were examined for inhibitory activity against purified HCV polymerase in a standard assay. Bacterial expression constructs encoding the approximately 65 kDa HCV genotype 1b NS5B protein were used to generate recombinant HCV polymerases (with a deletion of the 21 carboxy terminal amino acids). Both the wild-type genotype 1b protein and protein containing the S282T mutation were expressed and purified for use in the enzymatic activity assay.The enzymatic activity assay measured the inhibitory effect of increasing concentrations of test compound on the incorporation of α-[33P]-labeled nucleotide into trichloroacetic acid-precipitable material. Recombinant polymerase and synthetic RNA template were combined in reaction buffer containing ribonucleoside triphosphates, α-[33P]-labeled nucleotide and eight concentrations of test compound in three-fold dilutions. Reactions were incubated for two hours at 30° C.Reactions were terminated by the addition of ice-cold trichloroacetic acid and sodium pyrophosphate to promote precipitation of newly-synthesized ribonucleic acid. Precipitable material from the reactions was collected by filtration onto 96-well filter plates, washed extensively with water, and quantified by liquid scintillation.The inhibitory activity of test compounds was determined by fitting results to dose-response curves using XLfit software.
`C[C@@]1(Cl)[C@H](O)[C@@H](COP(=O)(O)OP(=O)(O)OP(=O)(O)O)O[C@H]1n1cnc2c(N)nc(Cl)nc21` [US10513534, Compound 404]: the IC50 was over 10000 nM. In the case of `C[C@@]1(Cl)[C@H](O)[C@@H](COP(=O)(O)OP(=O)(O)OP(=O)(O)O)O[C@H]1n1ccc(N)nc1=O` [US10513534, Compound 402], the IC50 is 5500 nM. The molecule `C[C@@]1(Cl)[C@H](O)[C@@H](COP(=O)(O)OP(=O)(O)OP(=O)(O)O)O[C@H]1n1ccc(=O)[nH]c1=O` [US10513534, Compound 401] registered a half-inhibitory concentration (IC50) of under 250 nM.

Take `C[C@@]1(Cl)[C@H](O)[C@@H](COP(=O)(O)OP(=O)(O)OP(=O)(O)O)O[C@H]1n1cnc2c(N)ncnc21` [US10513534, Compound 406]: the half-inhibitory concentration (IC50) was under 250 nM.

A further assay addresses T1, Genome polyprotein.
Assay: not given
`C[C@@]1(Cl)[C@H](O)[C@@H](COP(=O)(O)OP(=O)(O)OP(=O)(O)O)O[C@H]1n1cnc2c(N)nc(Cl)nc21` [US10513534, Compound 404] yielded a concentration for half-maximal inhibition (IC50) of over 10000 nM. Still for that read-out and setting: in the case of `C[C@@]1(Cl)[C@H](O)[C@@H](COP(=O)(O)OP(=O)(O)OP(=O)(O)O)O[C@H]1n1cc(F)c2c(N)ncnc21` [US10513534, Compound 407] it was under 250 nM; in that of `C[C@@]1(Cl)[C@H](O)[C@@H](COP(=O)(O)OP(=O)(O)OP(=O)(O)O)O[C@H]1n1cnc2c(=O)[nH]c(N)nc21` [US10513534, Compound 405], under 250 nM; in that of `C[C@@]1(Cl)[C@H](O)[C@@H](COP(=O)(O)OP(=O)(O)OP(=O)(O)O)O[C@H]1n1ccc2c(N)ncnc21` [US10513534, Compound 403], under 250 nM.
